Measurements reported in patent publication US8241680B2, “Nutraceutical product containing anatabine and yerba maté” (priority 2010, dated 2012).
One block for each compound: values may come before it.

What was measured:
[1] = Stability analysis of anatabine base with and without BHT as a preservative; assay type: physicochemical
Procedure: See, for example, Tables 3 and 4 in Examples 4 and 5, respectively. Purity of the anatabine may be retained for extended periods of time. […] Further, anatabine remains stable when stored at a variety of temperatures. For example, the anatabine retains the indicated purity when stored at −20° C. to −10° C., −20° C. to 0° C., −10° C. to 0° C., 0° C. to 4° C., 2° C. to 8° C., 5° C. to 10° C., 10° C. to 15° C., 15° C. to 25° C., or 25° C. to 28° C. Stability is determined by any suitable art-recognized method. For example, anatabine stability may be monitored by high performance liquid chromatography (HPLC), liquid chromatography-mass spectroscopy (LC-MS), or nuclear magnetic resonance (NMR).
Anatabine base stability was analyzed with and without BHT (3,5-di-tert-butyl-4-hydroxytoluene). The initial purity of BHT-free anatabine base was 94.95%. The initial purity of anatabine base with BHT was 94.87%.

[2] = Stability analysis of Formula I (purity by HPLC on storage); assay type: physicochemical
Description: Several batches of Formula I produced by reacting benzophenoneimine with aminomethylpyridine in the absence of benzene were stored refrigerated and also at room temperature.

Structure (SMILES): C1=CCC(c2cccnc2)NC1 (stereo not shown) [anatabine base, anatabine]
Initial purity ([1]; BHT-free): 94.95%
Purity (%) (with BHT) ([1]; day 1, 2-8° C., with BHT): 93.26%
Purity (%) (without BHT) ([1]; day 1, 2-8° C.): 94.44%
Purity (%) (with BHT) ([1]; day 1, 25-28° C., with BHT): 93.27%
Purity (%) (without BHT) ([1]; day 1, 25-28° C.): 89.63%
Purity (%) (with BHT) ([1]; day 1, −20° C., with BHT): 94.26%
Purity (%) (without BHT) ([1]; day 1, −20° C.): 93.90%
Purity (%) (with BHT) ([1]; day 2, 2-8° C., with BHT): 94.83%
Purity (%) (without BHT) ([1]; day 2, 2-8° C.): 94.05%
Purity (%) (with BHT) ([1]; day 2, 25-28° C., with BHT): 92.73%
Purity (%) (without BHT) ([1]; day 2, 25-28° C.): 87.59%
Purity (%) (with BHT) ([1]; day 2, −20° C., with BHT): 94.73%
Purity (%) (without BHT) ([1]; day 2, −20° C.): 94.62%
Purity (%) (with BHT) ([1]; day 3, 2-8° C., with BHT): 94.26%
Purity (%) (without BHT) ([1]; day 3, 2-8° C.): 91.65%
Purity (%) (with BHT) ([1]; day 3, 25-28° C., with BHT): 87.44%
Purity (%) (without BHT) ([1]; day 3, 25-28° C.): 80.74%
Purity (%) (with BHT) ([1]; day 3, −20° C., with BHT): 94.62%
Purity (%) (without BHT) ([1]; day 3, −20° C.): 93.87%
Purity (%) (with BHT) ([1]; day 12, 2-8° C., with BHT): 94.18%
Purity (%) (without BHT) ([1]; day 12, 2-8° C.): 90.12%
Purity (%) (with BHT) ([1]; day 12, 25-28° C., with BHT): 85.10%
Purity (%) (without BHT) ([1]; day 12, 25-28° C.): 79.59%
Purity (%) (with BHT) ([1]; day 12, −20° C., with BHT): 94.74%
Purity (%) (without BHT) ([1]; day 12, −20° C.): 94.01%
Initial purity ([1]; with BHT): 94.87%

Purity (%) (stored at 2-8° C.) ([2]; day 1, 2-8° C.): 88.61%
Purity (%) (stored at 25-28° C.) ([2]; day 1, 25-28° C.): 88.93%
Purity (%) (stored at 2-8° C.) ([2]; day 2, 2-8° C.): 88.83%
Purity (%) (stored at 25-28° C.) ([2]; day 2, 25-28° C.): 85.49%
Purity (%) (stored at 2-8° C.) ([2]; day 3, 2-8° C.): 88.30%
Purity (%) (stored at 25-28° C.) ([2]; day 3, 25-28° C.): 88.02%
Purity (%) (stored at 2-8° C.) ([2]; day 6, 2-8° C.): 88.83%
Purity (%) (stored at 25-28° C.) ([2]; day 6, 25-28° C.): 86.62%
Purity (%) (stored at 2-8° C.) ([2]; day 12, 2-8° C.): 88.75%
Purity (%) (stored at 25-28° C.) ([2]; day 12, 25-28° C.): 87.47%
Purity (%) (stored at 2-8° C.) ([2]; day 18, 2-8° C.): 88.46%
Purity (%) (stored at 25-28° C.) ([2]; day 18, 25-28° C.): 87.25%
Purity on storage ([2]; refrigerated): constant
Deviation of purity on storage ([2]; room temperature): 1-2%
Structure (SMILES): c1ccc(C(=NCc2cccnc2)c2ccccc2)cc1 [Formula I, benzylhydrylidene-pyridin-3-ylmethyl-amine]
